Source: US12479856B2, “Pharmaceutical compounds for the treatment of complement mediated disorders” (Achillion Pharmaceuticals, Inc., priority 2019, dated 2025)

Target: T1, Human complement C1s enzyme (Homo sapiens, UniProt P09871)
T1 construct: purified from human serum, Complement Technology, Inc; purchased Complement Technology, Inc; host or cells: human serum (plasma-derived natural protein)
T1 sequence (P09871 438-688 limits assumed): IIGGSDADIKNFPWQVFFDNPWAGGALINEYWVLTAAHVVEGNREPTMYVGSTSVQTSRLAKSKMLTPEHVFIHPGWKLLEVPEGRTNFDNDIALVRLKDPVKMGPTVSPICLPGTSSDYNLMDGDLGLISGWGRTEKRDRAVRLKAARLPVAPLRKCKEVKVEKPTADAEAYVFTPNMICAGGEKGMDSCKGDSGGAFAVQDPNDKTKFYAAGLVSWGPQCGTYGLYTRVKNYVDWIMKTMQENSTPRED
T1 sequence (P09871 16-437 partner limits assumed): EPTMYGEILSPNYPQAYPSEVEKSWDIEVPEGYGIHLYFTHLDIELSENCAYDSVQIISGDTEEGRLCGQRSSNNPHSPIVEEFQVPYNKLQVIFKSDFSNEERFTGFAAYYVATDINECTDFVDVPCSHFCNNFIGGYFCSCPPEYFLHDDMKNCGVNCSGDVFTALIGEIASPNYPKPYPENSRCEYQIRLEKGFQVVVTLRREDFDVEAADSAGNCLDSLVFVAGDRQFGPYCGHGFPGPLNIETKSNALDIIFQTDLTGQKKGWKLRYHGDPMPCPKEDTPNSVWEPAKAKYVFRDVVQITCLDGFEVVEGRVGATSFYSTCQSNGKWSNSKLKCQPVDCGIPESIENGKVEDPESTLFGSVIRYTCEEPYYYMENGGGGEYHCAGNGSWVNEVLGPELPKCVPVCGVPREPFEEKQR
Assay: Human C1s Enzyme Assay
Type: biochemical
Details: Table 2; C1s purified from human serum, 1.16 nM; substrate Z-L-Lys-SBzl; read-out: C1s Protease Activity
How it was run: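 Serum-purified human C1s (1.16 nM) preincubated 5 min at RT with compound in 50 mM Tris, 1 M NaCl, pH 7.5. Z-L-Lys-SBzl and DTNB (100 μM each) then added; A405 followed every 30 s for 30 min. IC50 from nonlinear regression of reaction rates versus compound concentration.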

IC50: < 100 nM
Compound: Cc1cc(C(=O)NCC(=O)N2CC3(C[C@H]2C(=O)NCc2nc(C(=N)N)co2)OCCO3)ccc1Oc1ccccc1 [Compound 51, (S)-N-((4-carbamimidoyloxazol-2-yl)methyl)-7-((3-methyl-4-phenoxybenzoyl)glycyl)-1,4-dioxa-7-azaspiro[4.4]nonane-8-carboxamide]
